Laboratory results published in PubChem BioAssay AID328 (DTP/NCI, 2004).
“And” between values parts separate entries of the source, which are not always exact repeats. Equal entries are not always repeated. Toxic doses and inconclusive results are not listed. The calls were made as follows: active = survival T/C of 150% or more; inactive = T/C below 125% in these data.

System: BDF1 mice, P388 leukemia ip, median survival T/C
Assay: NCI In Vivo Anticancer Drug Screen. Data for tumor model P388 Leukemia (intraperitoneal) in B6D2F1 (BDF1) mice
Details: endpoint: median survival time, higher = longer survival
How it was run: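 Read-out is survival of treated animals expressed relative to the vehicle group, as a T/C ratio.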

[1] = dose: 100.0 mg/kg/injection, schedule: Q01DX009 (ip), vehicle: saline with Tween-80
[2] = dose: 100.0 mg/kg/injection, schedule: Q04DX003 (ip), vehicle: saline with Tween-80
[3] = dose: 200.0 mg/kg/injection, schedule: Q01DX009 (ip), vehicle: saline with Tween-80
[4] = dose: 200.0 mg/kg/injection, schedule: Q04DX003 (ip), vehicle: saline with Tween-80
[5] = dose: 400.0 mg/kg/injection, schedule: Q04DX003 (ip), vehicle: saline with Tween-80
[6] = dose: 400.0 mg/kg/injection, schedule: Q01DX009 (ip), vehicle: saline with Tween-80

Measured: T/C

N#CS/C=C\C(N)=O
inactive: dose: 1.5 mg/kg/injection, schedule: Q01DX009 (ip), vehicle: Klucel (hydroxypropylcellulose) (HPC) 100 % of control | dose: 1.5 mg/kg/injection, schedule: Q04DX003 (ip), vehicle: Klucel (hydroxypropylcellulose) (HPC) 95 % of control | dose: 3.0 mg/kg/injection, schedule: Q01DX009 (ip), vehicle: Klucel (hydroxypropylcellulose) (HPC) 91 % of control | dose: 3.0 mg/kg/injection, schedule: Q04DX003 (ip), vehicle: Klucel (hydroxypropylcellulose) (HPC) 95 % of control | dose: 6.0 mg/kg/injection, schedule: Q01DX009 (ip), vehicle: Klucel (hydroxypropylcellulose) (HPC) 89 % of control and 91 % of control | dose: 6.0 mg/kg/injection, schedule: Q04DX003 (ip), vehicle: Klucel (hydroxypropylcellulose) (HPC) 100 % of control | dose: 6.25 mg/kg/injection, schedule: Q04DX003 (ip), vehicle: Klucel (hydroxypropylcellulose) (HPC) 90 % of control | dose: 12.5 mg/kg/injection, schedule: Q04DX003 (ip), vehicle: Klucel (hydroxypropylcellulose) (HPC) 100 % of control

CN(C)c1cc2c3c(c1)CCCN3CCC2
inactive: dose: 3.13 mg/kg/injection, schedule: Q01DX009 (ip), vehicle: saline 95 % of control | dose: 6.25 mg/kg/injection, schedule: Q01DX009 (ip), vehicle: saline 100 % of control | dose: 12.5 mg/kg/injection, schedule: Q01DX009 (ip), vehicle: saline 113 % of control

O=S(=O)(c1ccccc1)N1CN2CCN(C2)C1
inactive: dose: 50.0 mg/kg/injection, schedule: Q01DX009 (ip), vehicle: saline with Tween-80 107 % of control | [1] 124 % of control

CC(=O)OCC(OC(C)=O)C(OC(C)=O)C(OC(C)=O)C(C#N)OC(C)=O (configuration not stated)
inactive: dose: 75.0 mg/kg/injection, schedule: Q01DX009 (ip), vehicle: saline with Tween-80 100 % of control | [1] 105 % of control | [2] 100 % of control | dose: 150.0 mg/kg/injection, schedule: Q01DX009 (ip), vehicle: saline with Tween-80 100 % of control | [3] 120 % of control | [4] 100 % of control | [5] 100 % of control

CC1(C2CC(=O)c3c(O)ccc(O)c3C2)OCCO1 (configuration not stated)
inactive: dose: 25.0 mg/kg/injection, schedule: Q01DX009 (ip), vehicle: other 107 % of control | dose: 50.0 mg/kg/injection, schedule: Q01DX009 (ip), vehicle: other 100 % of control | dose: 100.0 mg/kg/injection, schedule: Q01DX009 (ip), vehicle: other 98 % of control | dose: 200.0 mg/kg/injection, schedule: Q01DX009 (ip), vehicle: other 98 % of control | dose: 400.0 mg/kg/injection, schedule: Q01DX009 (ip), vehicle: other 116 % of control

C=CCN(CC=C)C(=O)OCC
inactive: [2] 100 % of control | [4] 120 % of control | [5] 104 % of control

CCOC(=O)C1CC1Cc1ccccc1 (configuration not stated)
inactive: [1] 108 % of control | [2] 104 % of control | [3] 108 % of control | [4] 108 % of control | [6] 120 % of control | [5] 113 % of control

Oc1ccc(C=Nc2ccccc2N=Cc2ccc(O)c(O)c2)cc1O
inactive: [1] 109 % of control | [2] 110 % of control | [3] 109 % of control | [4] 105 % of control | [6] 104 % of control | [5] 110 % of control

CS(=O)(=O)c1ncc(Br)cn1
inactive: dose: 50.0 mg/kg/injection, schedule: Q01DX005 (ip), vehicle: saline with Tween-80 103 % of control | dose: 50.0 mg/kg/injection, schedule: Q01DX009 (ip), vehicle: saline 111 % of control | dose: 100.0 mg/kg/injection, schedule: Q01DX005 (ip), vehicle: saline with Tween-80 109 % of control | dose: 100.0 mg/kg/injection, schedule: Q01DX009 (ip), vehicle: saline 124 % of control | dose: 200.0 mg/kg/injection, schedule: Q01DX005 (ip), vehicle: saline with Tween-80 117 % of control | dose: 200.0 mg/kg/injection, schedule: Q01DX009 (ip), vehicle: saline 120 % of control | dose: 400.0 mg/kg/injection, schedule: Q01DX005 (ip), vehicle: saline with Tween-80 120 % of control
